According to patent US10285983B2, “3-(1H-pyrrolo[2,3-B]pyridin-2-yl)-1H-pyrazolo[3,4-B] pyridines and therapeutic uses thereof” (Samumed, LLC, priority 2015, dated 2019):
pEC50: −log10 of the molar value.

What was measured:
Format in all cases: cell-based
[1] = tested on: Wnt activity (Sp5-Luc reporter, SW480 colon carcinoma cells); experiment: Wnt activity screening assay, Sp5-Luc reporter gene in SW480 cells; conditions: Homo sapiens; for inhibition at 10 µM: given for EC50 >10 μM, read-out: percent inhibition at 10 μM; for pEC50: overnight incubation
From the text: The screening assay for Wnt activity is described as follows. Reporter cell lines can be generated by stably transducing cancer cell lines (e.g., colon cancer) or primary cells (e.g., IEC-6 intestinal cells) with a lentiviral construct that includes a Wnt-responsive promoter driving expression of the firefly luciferase gene.
SW480 colon carcinoma cells were transduced with a lentiviral vector expressing luciferase with a human Sp5 promoter consisting of a sequence of eight TCF/LEF binding sites. SW480 cells stably expressing the Sp5-Luc reporter gene and a hygromycin resistance gene were selected by treatment with 150 μg/mL of hygromycin for 7 days. These stably transduced SW480 cells were expanded in cell culture and used for all further screening activities. Each compound was dissolved in DMSO as a 10 mM stock and used to prepare compound source plates. Serial dilution (1:3, 10-point dose-response curves starting from 10 μM) and compound transfer was performed using the ECHO 550 (Labcyte, Sunnyvale, Calif.) into 384-well white solid bottom assay plates (Greiner Bio-One) with appropriate DMSO backfill for a final DMSO concentration of 0.1%. For Sp5-Luc reporter gene assays, the cells were plated at 4,000 cells/well in 384-well plates with medium containing 1% fetal bovine serum and incubated overnight at 37° C. and 5% CO2. Following incubation, 20 μl of BrightGlo luminescence reagent (Promega) was added to each well of the 384-well assay plates. The plates were placed on an orbital shaker for 2 min and then luminescence was quantified using the Envision (Perkin Elmer) plate reader. Readings were normalized to DMSO only treated cells, and normalized activities were utilized for EC50 calculations using the dose-response log (inhibitor) vs. response—variable slope (four parameters) nonlinear regression feature available in GraphPad Prism 5.0 (or Dotmatics). For EC50 of >10 μM, the percent inhibition at 10 μM is provided.

SW480 colon cancer cells = experiment: Cell viability assay (CellTiter-Blue); conditions: Homo sapiens, 96 h, four days; for inhibition at 10 µM: given for EC50 >10 μM, read-out: percent inhibition at 10 μM
Protocol: Representative compounds were screened using the following assay procedure to assess the effect on cell viability as described below.
Each compound was dissolved in DMSO as a 10 mM stock and used to prepare compound source plates. Serial dilution (1:3, 8-point dose-response curves from 10 μM to 0.0045 μM) and compound transfer was performed using the ECHO 550 (Labcyte, Sunnyvale, Calif.) into 96-well clear bottom, black-walled plates (Corning-Costar).
Approximately 2×10^3 SW480 colon cancer cells were seeded into each well and allowed to incubate in the presence or absence of compound for four days at 37° C./5% CO2. Eight replicates of DMSO-treated cells served as controls and cells treated with compound were performed in duplicate.
After incubation, 20 μL of CellTiter-Blue (Promega) was added to each well allowed to incubate for approximately 3 hours. This reagent was a buffered solution which contains resazurin, metabolically active cells were able to reduce rezarurin (blue) into resorufin (pink) which was highly fluorescent. This measured fluorescence was used as a readout for cell viability.
After incubation, the plates were read at Ex 560 nm Em 590 nm (Cytation 3, BioTek). Dose-response curves were generated and EC50 concentration values were calculated using non-linear regression curve fit in the GraphPad Prism (San Diego, Calif.) or Dotmatics' Studies Software (Bishops Stortford, UK). For EC50 of >10 μM, the percent inhibition at 10 μM is provided.

[2] = tested on: IL-6 (THP-1 human monocyte cell line); experiment: IL-6 inhibition in LPS-stimulated THP-1 cells (HTRF); conditions: LPS 500 ng/mL, 22 hours, IL6 HTRF
Protocol: Human monocyte cell line (THP-1 cells; Catalog # TIB-202, ATCC, Manassas, Va.) were cultured in Roswell Park Memorial Institute (RPMI) 1640 Medium (Catalog #21870-100, Buffalo, N.Y.) with 1% L-glutamine, 1% HEPES, 1% Sodium Pyruvate, 2% Sodium Bicarbonate supplemented with 100 units/mL penicillin, 50 μg/mL streptomycin, 2-mercaptoethanol (0.05 mM) [basal medium] and 10% fetal bovine serum (Catalog #16140089, Life Technologies, Carlsbad, Calif.) at 37° C. and 5% CO2.
THP-1 cells were cultured in basal media with 1% FBS for 24 hours before the start of the assay. Each compound was dissolved in DMSO as a 10 mM stock and used to prepare compound source plates. Serial dilution (1:3, 10-point dose-response curves starting from […]) and compound transfer was performed using the ECHO 550 (Labcyte, Sunnyvale, Calif.) into 384-well white low volume assay plates (Greiner Bio-One) with appropriate DMSO backfill for a final DMSO concentration of 0.1%. THP-1 cells were plated at 5000 cells/well in the 384-well plates and incubated at 37° C. for 2 h. 500 ng/mL of LPS was added after 2 hours and cells were incubated for another 22 hours at 37° C. Plates were spun in a centrifuge for 1 minute at 10,000 rpm and a mixture of anti-IL6 XL665, and anti-IL6 Cryptate diluted in reconstitution buffer (Cisbio Inc.) was added to each well. Following incubation for 3 hrs at room temperature, Homogeneous Time-Resolved Fluorescence (HTRF) was measured using the Envision (Perkin Elmer) at 665 nm and […]. The ratio of fluorescence at 665 nm to 620 nm was used as a readout for IL6 quantification. All samples were processed in duplicate. Readings were normalized to DMSO treated cells and normalized activities were utilized for EC50 calculations using the dose-response log (inhibitor) vs. response—variable slope (four parameters) nonlinear regression feature available in GraphPad Prism 5.0 (or Dotmatics). For EC50 of >10 μM, the percent inhibition at 10 μM is provided.

[3] = tested on: primary human fibroblasts derived from IPF patients (LL29 cells); experiment: Inhibition of fibrotic process, αSMA staining in TGF-β1 treated LL29 fibroblasts; conditions: Fibroblast, 96 h, TGF-β1 20 ng/mL, 4 days; for pEC50: % αSMA positive cells
From the text: Representative compounds were screened using primary human fibroblasts (derived from IPF patients) treated with TGF-β1 to determine their ability to inhibit the fibrotic process.
Primary human fibroblasts derived from IPF patients (LL29 cells) [^1Xiaoqiu Liu, et. al., “Fibrotic Lung Fibroblasts Show Blunted Inhibition by cAMP Due to Deficient cAMP Response Element-Binding Protein Phosphorylation”, Journal of Pharmacology and Experimental Therapeutics (2005), 315(2), 678-687; ^2Watts, K. L., et. al., “RhoA signaling modulates cyclin D1 expression in human lung fibroblasts; implications for idiopathic pulmonary fibrosis”, Respiratory Research (2006), 7(1), 88] were obtained from American Type Culture Collection (ATCC) and expanded in F12 medium supplemented with 15% Fetal Bovine Serum and Penicillin/Streptomycin.
Each compound was dissolved in DMSO as a 10 mM stock and used to prepare compound source plates. Serial dilution (1:2, 11-point dose-response curves from […] to […]) and compound transfer was performed using the ECHO 550 (Labcyte, Sunnyvale, Calif.) into 384-well clear bottom assay plates (Greiner Bio-One) with appropriate DMSO backfill for a final DMSO concentration of 0.1%. LL29 cells are plated at 1,500 cells/well in 80 μL/well F12 medium supplemented with 1% Fetal Bovine Serum. One hour after addition of the cells, TGF-β1 (Peprotech; 20 ng/mL) was added to the plates to induce fibrosis (ref. 1 and 2 above). Wells treated with TGF-β1 and containing DMSO were used as controls. Cells were incubated at 37° C. and 5% CO2 for 4 days. Following incubation for 4 days, SYTOX green nucleic acid stain (Life Technologies [Thermo Fisher Scientific]) was added to the wells at a final concentration of 1 μM and incubated at room temperature for 30 min. Cells were then fixed using 4% formaldehyde (Electron Microscopy Sciences), washed 3 times with PBS followed by blocking and permeabilization using 3% Bovine Serum Albumin (BSA; Sigma) and 0.3% Triton X-100 (Sigma) in PBS. Cells were then stained with antibody specific to α-smooth muscle actin (αSMA; Abcam) (ref. 1 and 2 above) in 3% Bovine Serum Albumin (BSA; Sigma) and 0.3% Triton X-100 (Sigma) in PBS, and incubated overnight at 4° C. Cells were then washed 3 times with PBS, followed by incubation with Alexa Flor-647 conjugated secondary antibody (Life Technologies [Thermo Fisher Scientific]) and DAPI at room temperature for 1 hour. Cells were then washed 3 times with PBS and plates were sealed for imaging. αSMA staining was imaged by excitation at 630 nm and emission at 665 nm and quantified using the Compartmental Analysis program on the CellInsight CX5 (Thermo Scientific). Dead or apoptotic cells were excluded from analysis based on positive SYTOX green staining. % of total cells positive for αSMA were counted in each well and normalized to the average of 11 wells treated with TGF-β1 on the same plate using Dotmatics' Studies Software. The normalized averages (fold change over untreated) of 3 replicate wells for each compound concentration were used to create dose-responses curves and EC50 values were calculated using non-linear regression curve fit in the Dotmatics' Studies Software. For EC50 of >10 μM, the percent inhibition at 10 μM is provided.

| pEC50 [1] | pEC50 (SW480 colon cancer cells) | pEC50 [2] | Structure (SMILES) | inhibition at 10 µM [1] | pEC50 [3] | inhibition at 10 µM (SW480 colon cancer cells) | inhibition at 10 µM ([3]; given for EC50 >10 μM, read-out: percent inhibition at 10 μM) |
| --- | --- | --- | --- | --- | --- | --- | --- |
| < 5.00 | 5.61 | 5.38 | Fc1cccc(-c2ccnc3[nH]c(-c4n[nH]c5ncc(-c6cncc(CNCc7ccccc7)c6)cc45)cc23)c1 [Compound 24, N-Benzyl-1-(5-(3-(4-(3-fluorophenyl)-1H-pyrrolo[2,3-b]pyridin-2-yl)-1H-pyrazolo[3,4-b]pyridin-5-yl)pyridin-3-yl)methanamine] | 25.8% | 5.98 |  |  |
| < 5.00 | < 5.00 |  | CC(C)(C)C(=O)Nc1cncc(-c2cnc3[nH]nc(-c4cc5c(-c6ccc(F)cc6)ccnc5[nH]4)c3c2)c1 [Compound 36, N-(5-(3-(4-(4-Fluorophenyl)-1H-pyrrolo[2,3-b]pyridin-2-yl)-1H-pyrazolo [3,4-b]pyridin-5-yl)pyridin-3-yl)pivalamide] | 12.7% | < 5.00 | 11.9% | 33.9% |
| < 5.00 | 5.27 | 5.41 | c1cc(N2CCCCC2)c2cc(-c3n[nH]c4ncc(C5CCNCC5)cc34)[nH]c2n1 [Compound 601, 3-(4-(Piperidin-1-yl)-1H-pyrrolo[2,3-b]pyridin-2-yl)-5-(piperidin-4-yl)-1H-pyrazolo[3,4-b]pyridine] | 36.6% | 5.02 |  |  |

| Structure (SMILES) | pEC50 [1] | pEC50 (SW480 colon cancer cells) | pEC50 [2] | inhibition at 10 µM [1] | pEC50 [3] | inhibition at 10 µM (SW480 colon cancer cells) | inhibition at 10 µM ([3]; given for EC50 >10 μM, read-out: percent inhibition at 10 μM) |
| --- | --- | --- | --- | --- | --- | --- | --- |
| O=C(Nc1cncc(-c2cnc3[nH]nc(-c4cc5c(N6CCCCC6)ccnc5[nH]4)c3c2)c1)C1CC1 [Compound 188, N-(5-(3-(4-(Piperidin-1-yl)-1H-pyrrolo[2,3-b]pyridin-2-yl)-1H-pyrazolo[3,4-b]pyridin-5-yl)pyridin-3-yl)cyclopropanecarboxamide] | 5.48 | < 5.00 | 6.46 |  | 5.75 | 40.8% |  |
